Consider one molecule from patent US11141368B2, “Cosmetic composition, cosmetic treatment method, kit, and compound” (L'OREAL, priority 2010, dated 2021).

The nature of experiment [1]: Porosity measurement of the locks of hair using a fluorescent probe. The following applies: after 5 shampoo washes, 5% by weight in distilled water.
Experiment [2] in a line: Improvement of hair straightening: leave-in post-treatment of alkaline-straightened hair, visual observation. The following applies: 5% by weight in distilled water. The source says:
Applied to hair (originally curly hair of curliness IV) straightened by an alkaline hair-straightening product (Goldys—2% active sodium hydroxide) is the following composition, with an amount of product/amount of hair ratio (g/g) of 2, without rinsing: • 5% by weight of compound (2) from Example 2 • qs for 100% distilled water
Observations are made at T0.
The locks are then washed once or 5 times using Ultra Mild shampoo (Garnier), then dried. Observations are made at T1 (after 1 shampoo wash) and at T5 (after 5 shampoo washes).
The control locks are treated with a composition comprising 100% distilled water.

Structures are written as SMILES.

As for `Cc1cc(=O)nc(NC(=O)NCCCN(C)C)[nH]1` [Compound 2, N-[3-(dimethylamino)propyl]-N′-(6-methyl-4-oxo-1,4-dihydropyrimidin-2-yl)urea], the “internal porosity of the hair versus control hair” value in experiment [1] is on record as “equivalent porosity”. The “hair-straightening efficiency compared to control post-treatment (distilled water)” value in experiment [2] (T0, product/hair ratio 2 g/g, no rinsing, hair straightened with 2% sodium hydroxide product) is recorded as “improved”. Moreover, the “persistence of the improvement in hair-straightening efficiency after shampoo washes” value in experiment [2] (T1 (after 1 shampoo wash) and T5 (after 5 shampoo washes)) was “persists”.
